Experimental data published in ChEMBL document CHEMBL1909046, “DrugMatrix in vitro pharmacology data”.

Key:
[1] = target: Prostaglandin G/H synthase 1 (Homo sapiens, UniProt P23219); experiment: biochemical; format: tissue-based, Platelet; conditions: platelet;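 also: inhibition of COX-1 enzyme activity, with arachidonic acid supplied as substrate; in other assays of this panel Not Active means under 50% inhibition at 10 µM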
[2] = DRUGMATRIX: Imidazoline I2, Central radioligand binding (ligand: [3H] Idazoxan); format: cell membranes, Rattus norvegicus, Wistar, Cerebral cortex, Membrane; conditions: Not Active = under 50% inhibition at 10 µM
[3] = target: T1, Neutrophil elastase (Homo sapiens, UniProt P08246); format: tissue-based;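 also: inhibition of neutrophil elastase enzyme activity, measured with a p-nitroanilide-linked peptide substrate; in other assays of this panel Not Active means under 50% inhibition at 10 µM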
T1 sequence (P08246 whole entry): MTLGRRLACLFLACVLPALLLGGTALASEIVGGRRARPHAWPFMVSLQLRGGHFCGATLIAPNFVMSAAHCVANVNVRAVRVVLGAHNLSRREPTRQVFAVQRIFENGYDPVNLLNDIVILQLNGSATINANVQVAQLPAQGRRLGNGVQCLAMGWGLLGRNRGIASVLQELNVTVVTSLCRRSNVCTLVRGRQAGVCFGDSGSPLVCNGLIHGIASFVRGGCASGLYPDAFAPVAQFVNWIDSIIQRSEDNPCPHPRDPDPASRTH

[4] = target: T2, Vasoactive intestinal polypeptide receptor 1 (Homo sapiens, UniProt P32241); format: cell membranes, Membrane; conditions: ht-29; also: in other assays of this panel Not Active means under 50% inhibition at 10 µM
T2 sequence (P32241 whole entry): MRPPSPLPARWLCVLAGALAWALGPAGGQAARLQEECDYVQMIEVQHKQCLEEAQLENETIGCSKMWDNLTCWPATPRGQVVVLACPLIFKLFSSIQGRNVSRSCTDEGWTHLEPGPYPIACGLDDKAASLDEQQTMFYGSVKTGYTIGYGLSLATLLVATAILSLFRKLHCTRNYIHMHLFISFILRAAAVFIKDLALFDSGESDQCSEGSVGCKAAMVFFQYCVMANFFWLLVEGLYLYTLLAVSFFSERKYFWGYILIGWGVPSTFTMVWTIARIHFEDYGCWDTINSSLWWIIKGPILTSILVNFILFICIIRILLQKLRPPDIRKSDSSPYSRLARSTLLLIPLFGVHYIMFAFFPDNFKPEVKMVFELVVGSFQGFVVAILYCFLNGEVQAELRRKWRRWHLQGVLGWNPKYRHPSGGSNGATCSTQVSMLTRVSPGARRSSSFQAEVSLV

[5] = target: Aldo-keto reductase family 1 member B1 (Rattus norvegicus, UniProt P07943); experiment: biochemical; format: tissue-based, Lens of camera-type eye;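 also: inhibition of aldose reductase enzyme activity, measured with DL-glyceraldehyde as the substrate; in other assays of this panel Not Active means under 50% inhibition at 10 µM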
[6] = target: Insulin receptor (Rattus norvegicus, UniProt P15127); format: cell membranes, Wistar, Liver, Membrane; also: in other assays of this panel Not Active means under 50% inhibition at 10 µM
Sequence of Insulin receptor (P15127 27-759 limits assumed): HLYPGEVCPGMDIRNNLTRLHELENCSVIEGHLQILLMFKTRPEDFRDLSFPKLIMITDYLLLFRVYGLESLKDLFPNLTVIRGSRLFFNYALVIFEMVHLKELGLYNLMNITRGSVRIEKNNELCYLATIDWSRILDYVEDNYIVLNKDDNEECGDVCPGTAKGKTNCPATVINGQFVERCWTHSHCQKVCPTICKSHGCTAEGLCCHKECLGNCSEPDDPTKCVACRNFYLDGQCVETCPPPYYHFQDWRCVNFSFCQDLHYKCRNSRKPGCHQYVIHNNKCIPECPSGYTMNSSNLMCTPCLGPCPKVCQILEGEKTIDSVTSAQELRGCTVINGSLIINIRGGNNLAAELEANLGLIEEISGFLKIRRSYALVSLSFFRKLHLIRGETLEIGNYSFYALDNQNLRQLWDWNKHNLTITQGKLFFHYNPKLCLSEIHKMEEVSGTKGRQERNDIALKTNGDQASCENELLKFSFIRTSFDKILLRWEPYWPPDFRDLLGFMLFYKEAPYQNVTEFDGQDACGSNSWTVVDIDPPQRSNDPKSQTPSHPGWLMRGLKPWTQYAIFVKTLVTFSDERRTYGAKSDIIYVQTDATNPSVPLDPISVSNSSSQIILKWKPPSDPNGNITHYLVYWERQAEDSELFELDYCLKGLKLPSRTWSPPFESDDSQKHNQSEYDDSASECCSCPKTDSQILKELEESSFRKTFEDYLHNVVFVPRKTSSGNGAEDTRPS
Sequence of Insulin receptor (P15127 764-1383 limits assumed): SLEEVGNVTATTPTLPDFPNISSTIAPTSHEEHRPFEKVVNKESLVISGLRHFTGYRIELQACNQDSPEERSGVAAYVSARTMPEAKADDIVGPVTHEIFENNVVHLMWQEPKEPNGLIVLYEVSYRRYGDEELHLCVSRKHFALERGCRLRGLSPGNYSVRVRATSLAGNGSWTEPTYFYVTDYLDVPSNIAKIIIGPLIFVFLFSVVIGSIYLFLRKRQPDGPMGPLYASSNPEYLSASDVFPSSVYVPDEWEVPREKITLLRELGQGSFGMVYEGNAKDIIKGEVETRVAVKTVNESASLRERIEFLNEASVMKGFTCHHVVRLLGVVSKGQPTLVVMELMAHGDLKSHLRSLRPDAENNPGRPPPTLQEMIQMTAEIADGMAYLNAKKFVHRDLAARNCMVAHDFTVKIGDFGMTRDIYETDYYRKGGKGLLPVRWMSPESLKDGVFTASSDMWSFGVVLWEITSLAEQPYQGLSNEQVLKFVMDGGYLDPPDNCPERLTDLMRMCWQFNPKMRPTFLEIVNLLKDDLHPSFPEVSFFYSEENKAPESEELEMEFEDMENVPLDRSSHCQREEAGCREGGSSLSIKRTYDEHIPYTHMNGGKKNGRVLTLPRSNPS

[7] = target: Carbonic anhydrase 2 (Homo sapiens, UniProt P00918); experiment: DRUGMATRIX: Carbonic Anhydrase II enzyme inhibition (substrate: 4-Nitrophenyl acetate (4-NPA)); format: tissue-based, Erythrocyte; conditions: erythrocyte; Not Active = under 50% inhibition at 10 µM

Sequence of Prostaglandin G/H synthase 1 (P23219 whole entry): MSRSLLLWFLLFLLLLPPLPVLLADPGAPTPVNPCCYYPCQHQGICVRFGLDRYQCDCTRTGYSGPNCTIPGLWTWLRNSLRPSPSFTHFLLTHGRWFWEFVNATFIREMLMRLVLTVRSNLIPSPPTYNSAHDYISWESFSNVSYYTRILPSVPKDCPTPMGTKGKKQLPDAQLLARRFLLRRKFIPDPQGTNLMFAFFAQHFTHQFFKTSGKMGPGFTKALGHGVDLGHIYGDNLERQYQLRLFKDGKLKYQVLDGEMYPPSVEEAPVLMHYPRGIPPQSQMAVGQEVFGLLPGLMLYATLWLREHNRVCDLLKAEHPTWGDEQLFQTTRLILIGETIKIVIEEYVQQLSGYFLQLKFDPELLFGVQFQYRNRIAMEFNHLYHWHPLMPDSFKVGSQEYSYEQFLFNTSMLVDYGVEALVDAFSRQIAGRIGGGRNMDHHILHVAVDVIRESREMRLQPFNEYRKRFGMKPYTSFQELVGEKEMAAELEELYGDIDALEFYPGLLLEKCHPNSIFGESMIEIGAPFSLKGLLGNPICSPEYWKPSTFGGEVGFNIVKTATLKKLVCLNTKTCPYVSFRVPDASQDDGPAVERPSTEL

Row | Compound | IC50 [1] | IC50 [2] | Ki [2] | IC50 [3] | IC50 [4] | IC50 [5] | IC50 [6] | IC50 [7] | IC50 ([2]; read-out: IC50) [nM] | Ki ([2]; read-out: Ki) [nM] | Ki [1] | Ki [3] | Ki [4] | Ki [5] | Ki [6] | Ki [7]
1 | O=C1c2ccccc2C(=O)C1c1ccccc1 [PHENINDIONE] | Not Active | Not Active | Not Active | Not Active | Not Active | Not Active | Not Active | Not Active |  |  |  |  |  |  |  | 
2 | Nc1ccc(C(=O)O)c(O)c1 [AMINOSALICYLIC ACID] | Not Active | Not Active | Not Active | Not Active | Not Active | Not Active | Not Active | Not Active |  |  |  |  |  |  |  | 
3 | OC[C@H]1O[C@@H]2O[C@H]3[C@H](O)[C@@H](O)[C@@H](O[C@H]4[C@H](O)[C@@H](O)[C@@H](O[C@H]5[C@H](O)[C@@H](O)[C@@H](O[C@H]6[C@H](O)[C@@H](O)[C@@H](O[C@H]7[C@H](O)[C@@H](O)[C@@H](O[C@H]1[C@H](O)[C@H]2O)O[C@@H]7CO)O[C@@H]6CO)O[C@@H]5CO)O[C@@H]4CO)O[C@@H]3CO [ALFADEX] | Not Active | Not Active | Not Active | Not Active | Not Active | Not Active | Not Active | Not Active |  |  |  |  |  |  |  | 
4 | COC(=O)C[C@](O)(CCC(C)(C)O)C(=O)O[C@@H]1C(OC)=C[C@]23CCCN2CCc2cc4c(cc2[C@H]13)OCO4 [HARRINGTONINE] | Not Active | Not Active | Not Active | Not Active | Not Active | Not Active | Not Active | Not Active |  |  |  |  |  |  |  | 
5 | O=C1CN(/N=C/c2ccc([N+](=O)[O-])o2)C(=O)N1 [NITROFURANTOIN] | Not Active | Not Active | Not Active | Not Active | Not Active | Not Active | Not Active | Not Active |  |  |  |  |  |  |  | 
6 | C[N+](C)(C)CCOC(N)=O.[Cl-] [CARBACHOL] | Not Active | Not Active | Not Active | Not Active | Not Active | Not Active | Not Active | Not Active |  |  |  |  |  |  |  | 
7 | O=C(NCCN1CCOCC1)c1ccc(Cl)cc1 [MOCLOBEMIDE] | Not Active | Not Active | Not Active | Not Active | Not Active | Not Active | Not Active | Not Active |  |  |  |  |  |  |  | 
8 | CC12CCC(CC1)C(C)(C)O2 [EUCALYPTOL] | Not Active | Not Active | Not Active | Not Active | Not Active | Not Active | Not Active | Not Active |  |  |  |  |  |  |  | 
9 | CC(N)Cc1c[nH]c2ccc(OCc3cccs3)cc12 (stereo not drawn) [BW-723C86] | Not Active | Not Active | Not Active | Not Active | Not Active | Not Active | Not Active | Not Active |  |  |  |  |  |  |  | 
10 | CCN1C[C@]2(COC)[C@H](O)C[C@H](OC)[C@@]34[C@@H]5C[C@@]6(O)[C@H](OC(=O)c7ccccc7)[C@@H]5[C@@](OC(C)=O)([C@@H]([C@H](OC)[C@H]23)[C@@H]14)[C@@H](O)[C@@H]6OC [ACONITINE] | Not Active | Not Active | Not Active | Not Active | Not Active | Not Active | Not Active | Not Active |  |  |  |  |  |  |  | 
11 | OC[C@H]1OC2C3[C@@H](CO)OC(O[C@H]4[C@H](O)[C@@H](O)[C@@H](O[C@H]5[C@H](O)[C@@H](O)[C@@H](O[C@H]6[C@H](O)[C@@H](O)[C@@H](O[C@H]7[C@H](O)[C@@H](O)[C@@H](O[C@H]8[C@H](O)[C@@H](O)[C@@H](O[C@H]9[C@H](O)[C@@H](O)C(OC1[C@H](O)[C@H]2O)O[C@@H]9CO)O[C@@H]8CO)O[C@@H]7CO)O[C@@H]6CO)O[C@@H]5CO)O[C@@H]4CO)[C@H](O)[C@H]3O | Not Active | Not Active | Not Active | Not Active | Not Active | Not Active | Not Active | Not Active |  |  |  |  |  |  |  | 
12 | CN(CCOc1ccc(C[C@H](Nc2ccccc2C(=O)c2ccccc2)C(=O)O)cc1)c1ccccn1 | Not Active | Not Active | Not Active | Not Active | Not Active | Not Active | Not Active | Not Active |  |  |  |  |  |  |  | 
13 | CCN1CCN(c2cc3c(cc2F)c(=O)c(C(=O)O)cn3C2CC2)CC1 [ENROFLOXACIN] | Not Active | Not Active | Not Active | Not Active | Not Active | Not Active | Not Active | Not Active |  |  |  |  |  |  |  | 
14 | NC(=O)NC(=O)Cc1ccccc1 [PHENACEMIDE] | Not Active | Not Active | Not Active | Not Active | Not Active | Not Active | Not Active | Not Active |  |  |  |  |  |  |  | 
15 | Cc1cc(C(C)(C)C)c(O)c(C)c1CC1=NCCN1 [OXYMETAZOLINE] | Not Active |  |  | Not Active | Not Active | Not Active | Not Active | Not Active | 27 | 18 |  |  |  |  |  | 
16 | CC(CN1c2ccccc2Sc2ccccc21)N(C)C (stereo not drawn) [PROMETHAZINE] | Not Active |  |  | Not Active | Not Active | Not Active | Not Active | Not Active | 1990 | 1330 |  |  |  |  |  | 
17 | NC(N)=Nc1nc(CSCCC(N)=NS(N)(=O)=O)cs1 [FAMOTIDINE] | Not Active | Not Active | Not Active | Not Active | Not Active | Not Active | Not Active | Not Active |  |  |  |  |  |  |  | 
18 | C[C@]12CC[C@@H](O)C[C@@H]1CC[C@@H]1[C@@H]2CC[C@]2(C)C(=O)CC[C@@H]12 [ANDROSTERONE] | Not Active | Not Active | Not Active | Not Active | Not Active | Not Active | Not Active | Not Active |  |  |  |  |  |  |  | 
19 | ClC1=C(Cl)[C@]2(Cl)[C@@H]3[C@@H]4C[C@@H]([C@H]5O[C@@H]45)[C@@H]3[C@@]1(Cl)C2(Cl)Cl [DIELDRIN] | Not Active | Not Active | Not Active | Not Active | Not Active | Not Active | Not Active | Not Active |  |  |  |  |  |  |  | 
20 | CC(=O)[C@]1(O)Cc2c(O)c3c(c(O)c2[C@@H](O[C@H]2C[C@H](N)[C@H](O)[C@H](C)O2)C1)C(=O)c1ccccc1C3=O [IDARUBICIN] | Not Active | Not Active | Not Active | Not Active | Not Active | Not Active | Not Active | Not Active |  |  |  |  |  |  |  | 
21 | COC(=O)Nc1nc2ccc(Sc3ccccc3)cc2[nH]1 [FENBENDAZOLE] | Not Active | Not Active | Not Active | Not Active | Not Active | Not Active | Not Active | Not Active |  |  |  |  |  |  |  | 
22 | Cc1ccnc2c1NC(=O)c1cccnc1N2C1CC1 [NEVIRAPINE] | Not Active | Not Active | Not Active | Not Active | Not Active | Not Active | Not Active | Not Active |  |  |  |  |  |  |  | 
23 | COPPER(II) OXIDE | Not Active | Not Active | Not Active | Not Active | Not Active | Not Active | Not Active | Not Active |  |  | Not Active | Not Active | Not Active | Not Active | Not Active | Not Active
24 | OC[C@H]1O[C@@H]2O[C@H]3[C@H](O)[C@@H](O)[C@@H](O[C@H]4[C@H](O)[C@@H](O)[C@@H](O[C@H]5[C@H](O)[C@@H](O)[C@@H](O[C@H]6[C@H](O)[C@@H](O)[C@@H](O[C@H]7[C@H](O)[C@@H](O)[C@@H](O[C@H]8[C@H](O)[C@@H](O)[C@@H](O[C@H]1[C@H](O)[C@H]2O)O[C@@H]8CO)O[C@@H]7CO)O[C@@H]6CO)O[C@@H]5CO)O[C@@H]4CO)O[C@@H]3CO [BETADEX] | Not Active | Not Active | Not Active | Not Active | Not Active | Not Active | Not Active | Not Active |  |  |  |  |  |  |  | 
